Test results: ChEMBL document CHEMBL5226360, “Pseudoprolines as stereoelectronically tunable proline isosteres” (Bioorg Med Chem Lett, 2022)
Starred links: 1 amine or outer side, 2 acyl side, 3 side chain; linkers in the order of their positions; H or OH if unused. Non-standard residues stand in square brackets, D forms with d. Residues, ends and D or L forms follow the SMILES beside them. X3 = O=C1C[C@](Cc2ccc(O)cc2)(N[*:1])[C@@H]2SC[C@@H](C(=O)[*:2])N12; X4 = O=C1C[C@](Cc2ccc(O)cc2)(N[*:1])[C@H]2SC[C@@H](C(=O)[*:2])N12; X1 = CC1(C)SC[C@@H](C(=O)[*:2])N1[*:1]; X2 = CC1(C)OC[C@@H](C(=O)[*:2])N1[*:1]; Thz = O=C(O)[C@@H]1CSCN1

Columns and labels:
[1] = system: Periplaneta americana; test: Diuretic activity in Periplaneta americana assessed as hindgut contraction by measuring maximal response incubated for 5 mins by myotropic assay relative to control; format: functional
[2] = system: Periplaneta americana; test: Diuretic activity in Periplaneta americana assessed as hindgut contraction by measuring lasting time incubated for 5 mins by myotropic assay; format: functional
[3] = system: Periplaneta americana; test: Diuretic activity in Periplaneta americana assessed as hindgut contraction incubated for 5 mins by myotropic assay; format: functional
[4] = Octanol-water partition coefficient, logP of the compound; format: physicochemical
[5] = target: Neurotensin receptor type 2 (Homo sapiens, UniProt O95665); test: Inhibition of human NTR2
Chain of Neurotensin receptor type 2 (O95665 whole entry): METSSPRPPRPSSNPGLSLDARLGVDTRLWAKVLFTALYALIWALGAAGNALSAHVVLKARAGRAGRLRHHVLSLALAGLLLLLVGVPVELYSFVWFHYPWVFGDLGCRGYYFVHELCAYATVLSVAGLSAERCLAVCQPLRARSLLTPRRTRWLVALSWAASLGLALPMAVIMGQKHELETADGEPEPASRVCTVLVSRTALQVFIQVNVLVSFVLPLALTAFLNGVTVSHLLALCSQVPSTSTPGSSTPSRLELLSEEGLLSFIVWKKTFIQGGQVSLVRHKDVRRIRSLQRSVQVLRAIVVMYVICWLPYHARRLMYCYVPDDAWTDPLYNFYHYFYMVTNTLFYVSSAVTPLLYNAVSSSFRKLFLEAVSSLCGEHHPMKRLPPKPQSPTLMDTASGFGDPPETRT

[6] = target: Human immunodeficiency virus type 1 protease (Human immunodeficiency virus 1, UniProt Q72874); test: Inhibition of HIV1 protease
[7] = target: T1, Type-2 angiotensin II receptor (Rattus norvegicus, UniProt P35351); test: Displacement of [I125I]AngII form AT2 receptor in rat liver membrane incubated for 1.5 hrs by gamma counting method; format: cell membranes
T1 sequence (P35351 whole entry): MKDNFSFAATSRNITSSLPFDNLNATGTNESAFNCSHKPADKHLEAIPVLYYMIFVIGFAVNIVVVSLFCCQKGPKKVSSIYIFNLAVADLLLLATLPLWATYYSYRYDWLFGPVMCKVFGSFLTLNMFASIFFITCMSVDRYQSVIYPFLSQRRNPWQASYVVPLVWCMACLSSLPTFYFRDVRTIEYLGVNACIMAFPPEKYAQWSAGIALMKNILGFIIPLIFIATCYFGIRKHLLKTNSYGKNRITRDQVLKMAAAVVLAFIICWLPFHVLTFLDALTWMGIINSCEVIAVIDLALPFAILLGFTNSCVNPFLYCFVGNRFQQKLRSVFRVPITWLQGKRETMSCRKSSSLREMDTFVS

[8] = target: T2, Type-1 angiotensin II receptor A (Rattus norvegicus, UniProt P25095); test: Displacement of [I125I]AngII form AT1 receptor in rat liver membrane incubated for 1.5 hrs by gamma counting method; format: cell membranes
T2 sequence (P25095 whole entry): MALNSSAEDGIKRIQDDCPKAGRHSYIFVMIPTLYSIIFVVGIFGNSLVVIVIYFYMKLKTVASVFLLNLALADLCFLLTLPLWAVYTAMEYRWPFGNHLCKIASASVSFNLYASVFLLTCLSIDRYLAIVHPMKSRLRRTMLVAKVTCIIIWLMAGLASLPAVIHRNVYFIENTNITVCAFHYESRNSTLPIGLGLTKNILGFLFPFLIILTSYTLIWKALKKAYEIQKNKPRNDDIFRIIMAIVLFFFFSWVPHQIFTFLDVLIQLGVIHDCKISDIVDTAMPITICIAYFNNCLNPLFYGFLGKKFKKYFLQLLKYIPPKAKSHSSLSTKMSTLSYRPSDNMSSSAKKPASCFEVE

[9] = target: Dipeptidyl peptidase 4 (Homo sapiens, UniProt P27487); test: Inhibition of DPP4 (unknown origin)
Chain of Dipeptidyl peptidase 4 (P27487 whole entry): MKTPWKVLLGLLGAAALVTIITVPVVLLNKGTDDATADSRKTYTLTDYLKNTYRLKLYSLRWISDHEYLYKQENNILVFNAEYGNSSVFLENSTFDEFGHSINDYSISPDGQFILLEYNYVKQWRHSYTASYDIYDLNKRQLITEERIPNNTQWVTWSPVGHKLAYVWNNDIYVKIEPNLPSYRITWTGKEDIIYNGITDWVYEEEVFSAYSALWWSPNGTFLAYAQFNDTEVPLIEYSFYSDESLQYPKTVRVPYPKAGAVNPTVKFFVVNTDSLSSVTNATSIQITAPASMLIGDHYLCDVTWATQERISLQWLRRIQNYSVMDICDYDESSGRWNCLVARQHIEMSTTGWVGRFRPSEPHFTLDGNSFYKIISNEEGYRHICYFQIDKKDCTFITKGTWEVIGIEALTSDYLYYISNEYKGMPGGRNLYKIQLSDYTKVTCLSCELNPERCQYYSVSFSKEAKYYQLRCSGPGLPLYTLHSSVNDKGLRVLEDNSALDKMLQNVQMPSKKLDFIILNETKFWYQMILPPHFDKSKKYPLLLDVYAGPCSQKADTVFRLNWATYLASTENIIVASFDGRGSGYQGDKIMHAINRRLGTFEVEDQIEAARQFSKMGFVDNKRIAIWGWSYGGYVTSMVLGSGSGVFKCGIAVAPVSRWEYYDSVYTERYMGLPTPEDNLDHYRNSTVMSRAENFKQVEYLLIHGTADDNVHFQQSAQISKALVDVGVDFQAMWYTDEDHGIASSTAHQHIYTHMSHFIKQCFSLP

[10] = Oral bioavailability in rat at 2 mg/kg; format: ADME, organism-based; conditions: in vivo
[11] = Half life in rat at 2 mg/kg, po; format: ADME, organism-based; conditions: in vivo
[12] = Oral bioavailability in rat at 10 mg/kg; format: ADME, organism-based; conditions: in vivo
[13] = Oral bioavailability in dog at 3 mg/kg; format: ADME, organism-based, Canis lupus familiaris; conditions: in vivo
[14] = Oral bioavailability in monkey at 3 mg/kg; format: ADME, organism-based, Macaca mulatta; conditions: rhesus monkey, in vivo
[15] = target: Angiotensin-converting enzyme (Homo sapiens, UniProt P12821); test: Inhibition of ACE (unknown origin)
Chain of Angiotensin-converting enzyme (P12821 whole entry): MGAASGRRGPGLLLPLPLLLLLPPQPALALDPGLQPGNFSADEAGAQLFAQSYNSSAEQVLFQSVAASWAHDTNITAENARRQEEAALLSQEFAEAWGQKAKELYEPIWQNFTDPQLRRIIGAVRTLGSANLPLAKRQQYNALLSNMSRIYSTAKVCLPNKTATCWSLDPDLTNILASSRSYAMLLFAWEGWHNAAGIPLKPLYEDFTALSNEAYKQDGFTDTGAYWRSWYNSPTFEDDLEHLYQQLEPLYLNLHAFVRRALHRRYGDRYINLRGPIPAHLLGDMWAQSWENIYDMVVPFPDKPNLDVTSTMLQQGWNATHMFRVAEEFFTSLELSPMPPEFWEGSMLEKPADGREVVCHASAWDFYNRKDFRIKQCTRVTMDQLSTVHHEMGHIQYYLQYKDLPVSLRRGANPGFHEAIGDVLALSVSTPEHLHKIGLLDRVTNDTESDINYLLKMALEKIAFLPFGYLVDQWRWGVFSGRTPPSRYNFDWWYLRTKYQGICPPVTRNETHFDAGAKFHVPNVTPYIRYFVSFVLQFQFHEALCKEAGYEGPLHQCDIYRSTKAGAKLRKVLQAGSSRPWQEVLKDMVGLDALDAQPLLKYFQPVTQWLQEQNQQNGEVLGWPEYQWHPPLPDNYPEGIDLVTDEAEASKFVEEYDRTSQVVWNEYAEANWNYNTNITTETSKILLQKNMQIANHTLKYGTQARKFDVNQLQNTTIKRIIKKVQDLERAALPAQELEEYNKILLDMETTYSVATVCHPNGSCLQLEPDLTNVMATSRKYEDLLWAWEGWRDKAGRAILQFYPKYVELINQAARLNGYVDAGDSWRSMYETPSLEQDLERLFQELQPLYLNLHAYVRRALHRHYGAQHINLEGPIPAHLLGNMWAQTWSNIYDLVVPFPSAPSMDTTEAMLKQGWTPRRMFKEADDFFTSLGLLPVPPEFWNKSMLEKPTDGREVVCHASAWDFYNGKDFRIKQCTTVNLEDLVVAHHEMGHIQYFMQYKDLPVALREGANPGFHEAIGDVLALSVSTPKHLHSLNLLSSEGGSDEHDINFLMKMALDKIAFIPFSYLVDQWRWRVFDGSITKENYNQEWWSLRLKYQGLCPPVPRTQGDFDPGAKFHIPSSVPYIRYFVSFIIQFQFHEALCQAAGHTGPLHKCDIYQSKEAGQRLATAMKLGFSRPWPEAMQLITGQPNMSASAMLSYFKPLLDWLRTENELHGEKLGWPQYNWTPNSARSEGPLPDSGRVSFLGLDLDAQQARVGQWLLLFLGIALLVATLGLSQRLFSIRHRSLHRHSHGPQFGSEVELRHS

[16] = target: T3, Prolyl endopeptidase (Homo sapiens, UniProt P48147); test: Inhibition of POP (unknown origin)
T3 sequence (P48147 whole entry): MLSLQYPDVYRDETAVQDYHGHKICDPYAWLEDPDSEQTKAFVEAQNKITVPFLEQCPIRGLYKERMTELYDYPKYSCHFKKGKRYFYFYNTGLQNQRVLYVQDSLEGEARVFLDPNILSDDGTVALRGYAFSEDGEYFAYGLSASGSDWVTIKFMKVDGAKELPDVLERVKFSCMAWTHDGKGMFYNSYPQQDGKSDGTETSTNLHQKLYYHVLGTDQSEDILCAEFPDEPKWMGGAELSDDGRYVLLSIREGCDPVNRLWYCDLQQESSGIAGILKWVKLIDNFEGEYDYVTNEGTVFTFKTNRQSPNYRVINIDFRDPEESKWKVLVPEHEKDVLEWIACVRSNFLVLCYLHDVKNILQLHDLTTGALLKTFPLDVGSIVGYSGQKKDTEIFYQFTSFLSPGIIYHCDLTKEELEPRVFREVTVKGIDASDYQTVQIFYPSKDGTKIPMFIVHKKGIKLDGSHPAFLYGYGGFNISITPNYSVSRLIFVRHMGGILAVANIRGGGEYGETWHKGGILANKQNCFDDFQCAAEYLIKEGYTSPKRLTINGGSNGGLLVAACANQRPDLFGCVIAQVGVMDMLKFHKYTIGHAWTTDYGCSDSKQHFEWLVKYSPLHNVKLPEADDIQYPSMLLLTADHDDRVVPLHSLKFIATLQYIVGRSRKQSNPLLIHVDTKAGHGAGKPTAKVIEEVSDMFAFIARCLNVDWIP

[17] = target: D(2) dopamine receptor (Homo sapiens) (UniProt P14416); conditions: dose 1.0 10^-7M
Chain of D(2) dopamine receptor (Homo sapiens) (P14416 whole entry): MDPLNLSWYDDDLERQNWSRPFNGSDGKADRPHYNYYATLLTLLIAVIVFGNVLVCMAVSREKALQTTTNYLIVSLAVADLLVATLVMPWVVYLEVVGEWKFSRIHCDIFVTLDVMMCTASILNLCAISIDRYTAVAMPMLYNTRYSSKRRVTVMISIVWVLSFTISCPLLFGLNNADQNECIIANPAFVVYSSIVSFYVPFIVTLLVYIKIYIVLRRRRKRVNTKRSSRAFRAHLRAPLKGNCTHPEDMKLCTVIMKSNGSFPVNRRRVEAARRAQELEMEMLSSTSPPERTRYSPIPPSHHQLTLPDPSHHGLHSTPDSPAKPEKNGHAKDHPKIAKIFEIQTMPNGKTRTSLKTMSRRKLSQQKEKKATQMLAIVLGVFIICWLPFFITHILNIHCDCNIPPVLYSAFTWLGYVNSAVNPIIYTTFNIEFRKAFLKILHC

[18] = Volume of distribution at steady state in dog at 3 mg/kg, iv; format: ADME, organism-based, Canis lupus familiaris; conditions: in vivo, read-out: Vdss
[19] = Volume of distribution at steady state in monkey at 3 mg/kg, iv; format: ADME, organism-based, Macaca mulatta; conditions: rhesus monkey, in vivo, read-out: Vdss
[20] = Clearance in rat at 10 mg/kg, iv; format: ADME, organism-based; conditions: in vivo
[21] = Volume of distribution at steady state in rat at 10 mg/kg, iv; format: ADME, organism-based; conditions: in vivo, read-out: Vdss
[22] = Clearance in monkey at 3 mg/kg, iv; format: ADME, organism-based, Macaca mulatta; conditions: rhesus monkey, in vivo
[23] = Half life in monkey at 3 mg/kg, po or iv; format: ADME, organism-based, Macaca mulatta; conditions: rhesus monkey, in vivo
[24] = Clearance in dog at 3 mg/kg, iv; format: ADME, organism-based, Canis lupus familiaris; conditions: in vivo
[25] = Half life in rat at 10 mg/kg, po or iv; format: ADME, organism-based; conditions: in vivo
[26] = Metabolic stability in pooled human liver microsomes assessed as parent compound remaining measured after 1 hr; format: ADME, Microsome; conditions: read-out: Stability
[27] = Half life in dog at 3 mg/kg, po or iv; format: ADME, organism-based, Canis lupus familiaris; conditions: in vivo
[28] = Tmax in rat at 10 mg/kg, ID; format: ADME, organism-based; conditions: in vivo
[29] = Bioavailability in rat under fed condition at 10 mg/kg, ID; format: ADME, organism-based; conditions: in vivo
[30] = Bioavailability in rat under fasted condition at 10 mg/kg, ID; format: ADME, organism-based; conditions: in vivo
[31] = Half life in rat at 10 mg/kg, iv; format: ADME, organism-based; conditions: in vivo
[32] = target: D(2) dopamine receptor (Homo sapiens) (UniProt P14416); conditions: dose 1.0 10^-8M

SMILES: NC(=O)CNC(=O)[C@H](Cc1c[nH]c2ccccc12)NC(=O)[C@@H]1CSCN1C(=O)[C@H](Cc1ccccc1)NC(=O)[C@@H](N)Cc1ccccc1 (H-FF[Thz]WG-NH2)
- Activity [1]: 71.5%
- Time [2]: 78 s
- EC50 [3]: 0.736 nM

SMILES: O=C(O)[C@@H]1CCCN1C(=O)OCC1c2ccccc2-c2ccccc21
- logP [4]: 0.094

SMILES: CC[C@H](C)[C@H](NC(=O)[C@H](Cc1ccc(O)cc1)NC(=O)[C@@H]1CCCN1C(=O)[C@H](CCCCN)NC(=O)[C@@H](N)CCCCN)C(=O)N[C@@H](CC(C)C)C(=O)O
- IC50 [5]: 0.47 nM

SMILES: C[Si]1(C)C[C@@H](C(=O)O)N(C(=O)OCC2c3ccccc3-c3ccccc32)C1
- logP [4]: 1.3

SMILES: CC1(C)OC[C@@H](C(=O)N[C@@H](Cc2c[nH]c3ccccc23)C(=O)NCC(N)=O)N1C(=O)[C@H](Cc1ccccc1)NC(=O)[C@@H](N)Cc1ccccc1 (H-FF[X2]WG-NH2)
- Activity [1]: 120.1%
- Time [2]: 120 s
- EC50 [3]: 0.614 nM

SMILES: CC(C)(C)NC(=O)[C@H]1N(C(=O)[C@@H](O)[C@H](Cc2ccccc2)NC(=O)[C@H](CC(N)=O)NC(=O)COc2cccc3ccccc23)CSC1(C)C
- IC50 [6]: 2.8 nM

SMILES: CC[C@H](C)[C@H](NC(=O)[C@H](Cc1ccc(O)cc1)NC(=O)[C@@H]1C[Si](C)(C)CN1C(=O)[C@H](CCCCN)NC(=O)[C@@H](N)CCCCN)C(=O)N[C@@H](CC(C)C)C(=O)O
- IC50 [5]: 5 nM

SMILES: CC(C)C[C@H](NC(=O)[C@H](CCCNC(=N)N)NC(=O)[C@@H](N)CC(=O)O)C(=O)N[C@@]1(Cc2ccc(O)cc2)CC(=O)N2[C@H]1SC[C@H]2C(=O)N[C@@H](Cc1c[nH]cn1)C(=O)N1CCC[C@H]1C(=O)N[C@@H](Cc1ccccc1)C(=O)O (H-DRL[X3]HPF-OH)
- Ki [7]: 1 nM
- Ki [8]: > 10000 nM

SMILES: CC1(C)SC[C@@H](C(=O)N[C@@H](Cc2c[nH]c3ccccc23)C(=O)NCC(N)=O)N1C(=O)[C@H](Cc1ccccc1)NC(=O)[C@@H](N)Cc1ccccc1 (H-FF[X1]WG-NH2)
- Activity [1]: 100.6%
- Time [2]: 108 s
- EC50 [3]: 0.708 nM

SMILES: NC(=O)CNC(=O)[C@H](Cc1c[nH]c2ccccc12)NC(=O)[C@@H]1CCCN1C(=O)[C@H](Cc1ccccc1)NC(=O)[C@@H](N)Cc1ccccc1 (H-FFPWG-NH2)
- Activity [1]: 66.8%
- Time [2]: 72 s
- EC50 [3]: 0.794 nM

SMILES: CC(C)(C)NC(=O)[C@@H]1CCCN1C(=O)[C@@H](O)[C@H](Cc1ccccc1)NC(=O)[C@H](CC(N)=O)NC(=O)OCc1ccccc1
- IC50 [6]: 89 nM

SMILES: CC(C)(C)NC(=O)[C@@H]1CSCN1C(=O)[C@@H](O)[C@H](Cc1ccccc1)NC(=O)[C@H](CC(N)=O)NC(=O)COc1cccc2ccccc12
- IC50 [6]: 8.8 nM

SMILES: CC(C)[C@H](Nc1ccc(CNC(=O)[C@@H]2CCCN2C(=O)C[C@H](N)Cc2cc(F)ccc2F)cc1)C(=O)O
- IC50 [9]: 0.48 nM
- bioavailability [10]: 1.2%
- half-life [11]: 0.63 h

SMILES: CC(C)[C@H](Nc1ccc(CNC(=O)[C@@H]2CSCN2C(=O)C[C@H](N)Cc2cc(F)ccc2F)cc1)C(=O)O
- bioavailability [12]: < 2.5%
- IC50 [9]: 0.3 nM
- bioavailability [13]: < 2.5%
- bioavailability [14]: < 2.5%

SMILES: C[C@H](CS)C(=O)N1CSC[C@H]1C(=O)O
- IC50 [15]: 372 nM

SMILES: CC(C)(C)NC(=O)[C@@H]1CSCN1C(=O)[C@@H](O)[C@H](Cc1ccccc1)NC(=O)[C@H](CC(N)=O)NC(=O)OCc1ccccc1
- IC50 [6]: 31 nM

SMILES: C[C@H](CS)C(=O)N1CCS[C@H]1C(=O)O
- IC50 [15]: 832 nM

SMILES: N#C[C@@H]1CS[C@H]2C[C@H](NC(=O)OCc3ccccc3)C(=O)N12
- IC50 [16]: 100000 nM

SMILES: NC(=O)[C@@H]1CS[C@@H]2CC[C@]3(CCCN3C(=O)[C@@H]3CCCN3)C(=O)N21
- inhibition [17]: 21.4%

SMILES: CSC[C@H](NC(=O)COc1cccc2cnccc12)C(=O)N[C@@H](Cc1ccccc1)[C@H](O)C(=O)N1CSC[C@H]1C(=O)NC(C)(C)C
- IC50 [6]: 6.5 nM
- Ki [6]: 0.74 nM

SMILES: CC(C)[C@@H](Nc1ccc(CNC(=O)[C@@H]2SCCN2C(=O)C[C@H](N)Cc2cc(F)c(F)cc2F)cc1)C(=O)O
- Vd [18]: 0.3 L/kg
- Vd [19]: 0.3 L/kg
- bioavailability [12]: < 2.5%
- clearance [20]: 16.7 mL/min/kg
- Vd [21]: 0.3 L/kg
- bioavailability [13]: < 2.5%
- clearance [22]: 16.7 mL/min/kg
- half-life [23]: > 3 h
- bioavailability [14]: < 2.5%
- clearance [24]: 16.7 mL/min/kg
- half-life [25]: > 3 h
- remaining at 1 h [26]: 98.9%
- half-life [27]: > 3 h

SMILES: CC(C)C[C@H](NC(=O)[C@H](CCCNC(=N)N)NC(=O)[C@@H](N)CC(=O)O)C(=O)N[C@@]1(Cc2ccc(O)cc2)CC(=O)N2[C@H](C(=O)N[C@@H](Cc3c[nH]cn3)C(=O)N3CCC[C@H]3C(=O)N[C@@H](Cc3ccccc3)C(=O)O)CS[C@@H]21 (H-DRL[X4]HPF-OH)
- Ki [7]: 3.7 nM
- Ki [8]: > 10000 nM

SMILES: Cc1ccccc1CNC(=O)[C@H]1N(C(=O)[C@@H](O)[C@H](Cc2ccccc2)NC(=O)c2cccc(O)c2C)CSC1(C)C
- Tmax [28]: 1 h
- bioavailability [29]: 33%
- bioavailability [30]: 33%
- half-life [31]: 1.55 h

SMILES: NC(=O)[C@H]1CS[C@@H]2CC[C@]3(CCCN3C(=O)[C@@H]3CCCN3)C(=O)N12
- inhibition [32]: 14.6%
